Where “and” joins values, the source holds several entries; their conditions need not be identical. Equal values may be shown once. Toxic doses and inconclusive results are not listed. Rule as the data show it: active = T/C of 150% or more; inactive = T/C below 125%.
System: L1210 leukemia ip in BDF1 mice, survival T/C
Test: NCI In Vivo Anticancer Drug Screen. Data for tumor model L1210 Leukemia (intraperitoneal) in B6D2F1 (BDF1) mice
Settings: endpoint: mean survival time, higher = longer survival
Procedure, shortened: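 Each compound was tested against a transplantable tumor grown in mice. The endpoint was survival, with treated animals benchmarked against vehicle controls as a simple ratio.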

[1] = dose: 100.0 mg/kg/injection, schedule: Q04DX003 (ip), vehicle: saline with Tween-80
[2] = dose: 200.0 mg/kg/injection, schedule: Q04DX003 (ip), vehicle: saline with Tween-80
[3] = dose: 400.0 mg/kg/injection, schedule: Q04DX003 (ip), vehicle: saline with Tween-80
[4] = dose: 100.0 mg/kg/injection, schedule: Q01DX009 (ip), vehicle: Klucel (hydroxypropylcellulose) (HPC)
[5] = dose: 200.0 mg/kg/injection, schedule: Q01DX009 (ip), vehicle: Klucel (hydroxypropylcellulose) (HPC)
[6] = dose: 400.0 mg/kg/injection, schedule: Q01DX009 (ip), vehicle: Klucel (hydroxypropylcellulose) (HPC)
[7] = dose: 100.0 mg/kg/injection, schedule: Q01DX009 (ip), vehicle: saline with Tween-80
[8] = dose: 200.0 mg/kg/injection, schedule: Q01DX009 (ip), vehicle: saline with Tween-80
[9] = dose: 400.0 mg/kg/injection, schedule: Q01DX009 (ip), vehicle: saline with Tween-80
[10] = dose: 100.0 mg/kg/injection, schedule: Q04DX003 (ip), vehicle: Klucel (hydroxypropylcellulose) (HPC)
[11] = dose: 200.0 mg/kg/injection, schedule: Q04DX003 (ip), vehicle: Klucel (hydroxypropylcellulose) (HPC)
[12] = dose: 400.0 mg/kg/injection, schedule: Q04DX003 (ip), vehicle: Klucel (hydroxypropylcellulose) (HPC)
[13] = dose: 100.0 mg/kg/injection, schedule: Q04DX002 (ip), vehicle: Klucel (hydroxypropylcellulose) (HPC)

Measured: T/C

COc1ccc(OC)c(C(=O)CCCC(=O)O)c1
inactive: dose: 100.0 mg/kg/injection, schedule: Q01DX009 (ip), vehicle: acetone 91 % of control | [1] 96 % of control | dose: 200.0 mg/kg/injection, schedule: Q01DX009 (ip), vehicle: acetone 86 % of control | [2] 89 % of control | dose: 400.0 mg/kg/injection, schedule: Q01DX009 (ip), vehicle: acetone 90 % of control | [3] 91 % of control

CCOC(=O)c1ccc(NC(=O)Oc2ccc(C(=O)OC)cc2)cc1
inactive: [4] 102 % of control | [5] 95 % of control | [6] 100 % of control

NNC(=O)NN
inactive: [7] 87 % of control | [8] 90 % of control | [9] 87 % of control

CCc1ccccc1NC(=O)Nc1ccccc1C
inactive: [4] 87 % of control | [10] 88 % of control | [5] 93 % of control | [11] 89 % of control | [6] 87 % of control | [12] 93 % of control

N#CSCc1cc(Cl)c(CSC#N)c(Cl)c1Cl
inactive: dose: 75.0 mg/kg/injection, schedule: Q01DX009 (ip), vehicle: saline 89 % of control | dose: 150.0 mg/kg/injection, schedule: Q01DX009 (ip), vehicle: saline 96 % of control | dose: 300.0 mg/kg/injection, schedule: Q01DX009 (ip), vehicle: saline 91 % of control

Cc1ccc(S(=O)(=O)NCCCOS(=O)(=O)c2ccc(C)cc2)cc1
inactive: [4] 104 % of control | dose: 100.0 mg/kg/injection, schedule: Q04DX003 (ip), vehicle: acetone 97 % of control | [5] 93 % of control | dose: 200.0 mg/kg/injection, schedule: Q04DX003 (ip), vehicle: acetone 95 % of control | [6] 93 % of control | dose: 400.0 mg/kg/injection, schedule: Q04DX003 (ip), vehicle: acetone 94 % of control

CCN(CC)c1ccc(N=Cc2ccccc2S(=O)(=O)O)cc1
inactive: dose: 6.25 mg/kg/injection, schedule: Q01DX009 (ip), vehicle: saline 95 % of control | dose: 6.25 mg/kg/injection, schedule: Q04DX003 (ip), vehicle: saline sonified 97 % of control | dose: 12.5 mg/kg/injection, schedule: Q01DX009 (ip), vehicle: saline 96 % of control | dose: 12.5 mg/kg/injection, schedule: Q04DX003 (ip), vehicle: saline sonified 103 % of control | dose: 25.0 mg/kg/injection, schedule: Q01DX009 (ip), vehicle: saline 93 % of control | dose: 25.0 mg/kg/injection, schedule: Q04DX003 (ip), vehicle: saline sonified 110 % of control

CC(C)(C)c1cccc(S(=O)(=O)Oc2ccccc2[N+](=O)[O-])c1
inactive: [4] 103 % of control | [5] 93 % of control | [6] 95 % of control

OCC1OC(Sc2ccccc2)C(O)C(O)C1O (stereo not given)
inactive: [10] 111 % of control | [11] 105 % of control | [12] 111 % of control

O=C(CCl)N1CCN(C(=O)CCl)CC1
inactive: dose: 10.0 mg/kg/injection, schedule: Q01DX009 (ip), vehicle: Klucel (hydroxypropylcellulose) (HPC) 110 % of control | dose: 20.0 mg/kg/injection, schedule: Q01DX009 (ip), vehicle: Klucel (hydroxypropylcellulose) (HPC) 101 % of control | dose: 20.0 mg/kg/injection, schedule: Q04DX003 (ip), vehicle: Klucel (hydroxypropylcellulose) (HPC) 104 % of control | dose: 40.0 mg/kg/injection, schedule: Q04DX003 (ip), vehicle: Klucel (hydroxypropylcellulose) (HPC) 106 % of control

Clc1ccc2c(c1)C([P+](c1ccccc1)(c1ccccc1)c1ccccc1)c1cc(Cl)cc(Cl)c1-2 (stereo not given)
inactive: dose: 100.0 mg/kg/injection, schedule: Q01DX001 (ip), vehicle: Klucel (hydroxypropylcellulose) (HPC) 95 % of control | [10] 102 % of control | dose: 200.0 mg/kg/injection, schedule: Q01DX001 (ip), vehicle: Klucel (hydroxypropylcellulose) (HPC) 93 % of control | [11] 96 % of control | dose: 400.0 mg/kg/injection, schedule: Q01DX001 (ip), vehicle: Klucel (hydroxypropylcellulose) (HPC) 95 % of control | [12] 104 % of control

CC12CCCCC1C(C(C)(C)OC(=O)c1ccc([N+](=O)[O-])cc1)CC2 (stereo not given)
inactive: dose: 25.0 mg/kg/injection, schedule: Q04DX002 (ip), vehicle: Klucel (hydroxypropylcellulose) (HPC) 105 % of control | dose: 50.0 mg/kg/injection, schedule: Q04DX002 (ip), vehicle: Klucel (hydroxypropylcellulose) (HPC) 99 % of control | [13] 89 % of control

CCOC(=O)C1(Cl)OC(Cl)(Cl)C(Cl)C1Cl (stereo not given)
inactive: dose: 10.0 mg/kg/injection, schedule: Q01DX001 (ip), vehicle: saline 92 % of control | dose: 20.0 mg/kg/injection, schedule: Q01DX001 (ip), vehicle: saline 90 % of control | dose: 40.0 mg/kg/injection, schedule: Q01DX001 (ip), vehicle: saline 103 % of control | dose: 80.0 mg/kg/injection, schedule: Q01DX001 (ip), vehicle: saline 90 % of control

CCOC(=O)C1(C(=O)OCC)CCC(O)N1C(=O)c1cc(OC)c(OC)cc1[N+](=O)[O-] (stereo not given)
inactive: [10] 97 % of control | [11] 99 % of control | [12] 97 % of control

COc1cc2ccc(CC(N)=O)cc2cc1OC
inactive: dose: 100.0 mg/kg/injection, schedule: Q04DX003 (ip), vehicle: saline 100 % of control | dose: 200.0 mg/kg/injection, schedule: Q04DX003 (ip), vehicle: saline 97 % of control | dose: 400.0 mg/kg/injection, schedule: Q04DX003 (ip), vehicle: saline 98 % of control

COc1cc(/C=C(\C(=O)O)c2cccc3ccccc23)cc(OC)c1OC
inactive: [10] 97 % of control | [11] 107 % of control | [12] 102 % of control

Fc1cc(F)c2ncccc2c1
inactive: dose: 12.5 mg/kg/injection, schedule: Q01DX001 (ip), vehicle: carboxymethylcellulose (CMC) 103 % of control | dose: 25.0 mg/kg/injection, schedule: Q01DX001 (ip), vehicle: carboxymethylcellulose (CMC) 98 % of control | dose: 50.0 mg/kg/injection, schedule: Q01DX001 (ip), vehicle: carboxymethylcellulose (CMC) 101 % of control | dose: 75.0 mg/kg/injection, schedule: Q01DX001 (ip), vehicle: carboxymethylcellulose (CMC) 117 % of control | dose: 150.0 mg/kg/injection, schedule: Q01DX001 (ip), vehicle: carboxymethylcellulose (CMC) 118 % of control

CCOC(=O)C(C)(C)O
inactive: dose: 100.0 mg/kg/injection, schedule: Q01DX001 (ip), vehicle: saline 91 % of control | dose: 200.0 mg/kg/injection, schedule: Q01DX001 (ip), vehicle: saline 100 % of control | dose: 400.0 mg/kg/injection, schedule: Q01DX001 (ip), vehicle: saline 102 % of control

CCN(CC)c1ccc(NC(=O)Nc2ccccc2OC)cc1
inactive: dose: 50.0 mg/kg/injection, schedule: Q01DX009 (ip), vehicle: saline with Tween-80 103 % of control | [7] 93 % of control and 101 % of control | [1] 103 % of control | [8] 101 % of control | [2] 97 % of control | [9] 95 % of control | [3] 96 % of control

CCCCCCCCCCCCCCCCCCNC(=O)Nc1cc(C)ccc1C
inactive: dose: 100.0 mg/kg/injection, schedule: Q01DX009 (ip), vehicle: gum acacia 87 % of control | dose: 100.0 mg/kg/injection, schedule: Q04DX003 (ip), vehicle: gum acacia 92 % of control | dose: 200.0 mg/kg/injection, schedule: Q01DX009 (ip), vehicle: gum acacia 96 % of control | dose: 200.0 mg/kg/injection, schedule: Q04DX003 (ip), vehicle: gum acacia 92 % of control | dose: 400.0 mg/kg/injection, schedule: Q01DX009 (ip), vehicle: gum acacia 92 % of control | dose: 400.0 mg/kg/injection, schedule: Q04DX003 (ip), vehicle: gum acacia 87 % of control

Cc1ccc2c[c]1[Hg][CH2]COS2(=O)=O
inactive: dose: 3.12 mg/kg/injection, schedule: Q04DX002 (ip), vehicle: Klucel (hydroxypropylcellulose) (HPC) 93 % of control | dose: 6.25 mg/kg/injection, schedule: Q04DX002 (ip), vehicle: Klucel (hydroxypropylcellulose) (HPC) 101 % of control | dose: 12.5 mg/kg/injection, schedule: Q04DX002 (ip), vehicle: Klucel (hydroxypropylcellulose) (HPC) 102 % of control and 90 % of control

Cc1ccc(Cl)c(NC(=O)Nc2ccccc2F)c1
inactive: [4] 97 % of control | [5] 100 % of control | [6] 103 % of control

O=C(O)C1C2OC(C(Cl)C2Cl)C1C(=O)O (stereo not given)
inactive: [13] 98 % of control | dose: 200.0 mg/kg/injection, schedule: Q04DX002 (ip), vehicle: Klucel (hydroxypropylcellulose) (HPC) 103 % of control | dose: 400.0 mg/kg/injection, schedule: Q04DX002 (ip), vehicle: Klucel (hydroxypropylcellulose) (HPC) 95 % of control
